The text below walks through data of PMC4193996 (Journal of Experimental & Clinical Cancer Research : CR, 2014).

Some results are limits rather than exact numbers.

The test system of data set [1] is h-Tel quadruplex DNA, 5'-biotin-d[AG3(T2AG3)3] (DNA, G4) AGGGTTAGGGTTAGGGTTAGGG
The experiment in a line: SPR.

Data set [2] concerns hairpin duplex, 5'-biotin-CGA3T3C(CT)2GA3T3CG (DNA, hairpin) CGAAATTTCCTCTGAAATTTCG
The data set is described as follows: SPR.

For data set [3], the target named is T1, human recombinant M2 muscarinic receptor (Homo sapiens, UniProt P08172).
T1 sequence (P08172 1-466): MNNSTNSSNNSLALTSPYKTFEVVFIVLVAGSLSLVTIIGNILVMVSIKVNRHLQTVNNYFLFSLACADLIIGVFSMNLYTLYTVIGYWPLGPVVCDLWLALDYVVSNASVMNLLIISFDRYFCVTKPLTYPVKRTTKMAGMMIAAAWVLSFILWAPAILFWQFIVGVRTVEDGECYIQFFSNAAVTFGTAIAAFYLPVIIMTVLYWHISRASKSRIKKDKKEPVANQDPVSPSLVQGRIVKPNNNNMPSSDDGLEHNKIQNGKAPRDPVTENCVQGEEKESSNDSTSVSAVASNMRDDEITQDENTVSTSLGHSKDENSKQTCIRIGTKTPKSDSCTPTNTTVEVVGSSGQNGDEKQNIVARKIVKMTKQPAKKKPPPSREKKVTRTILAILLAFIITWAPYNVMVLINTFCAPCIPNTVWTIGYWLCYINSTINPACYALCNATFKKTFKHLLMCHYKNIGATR
The experiment in a line: M2 muscarinic receptor inhibition assay. Format: binding. The note with it: read-out: Muscarinic (M2) % inh @1 μM. On the procedure: (§1) hEGR study and the M2 and the β2 receptor inhibition assay were performed as previously reported.
(§2) The new G-quadruplex ligands were designed in an attempt to obtain molecules with improved toxicological and on-target profiles, but maintaining the same favorable chemical and pharmacological features of the lead compound 1. With the aim of selecting the best variants, a step by step comparative analysis of their off- and on-target properties was performed. Initially the new molecules were tested for their ability to interact with and inhibit the human recombinant β2 adrenergic and M2 muscarinic receptors, and to reduce the hERG tail current in a patch clamp assay. […] Therefore, we might expect that the new ligands would impair cardiac functionality to a lesser extent than the lead molecule does.

Data set [4] has as its target human recombinant β2 adrenergic receptor (Homo sapiens, UniProt P07550). The experiment in a line: β2 adrenergic receptor inhibition assay. The data set is classed as binding. The note with it: read-out: β2 adrenergic % inh @1 μM. On the procedure:
as §1, §2

For a further data set, the target named is hERG (Homo sapiens, UniProt Q12809). The experiment in a line: hERG tail current inhibition in a patch clamp assay. The data set is classed as cell-based. To be noted: read-out: hERG % inh @10 μM. On the procedure: as §1, §2
hERG, sequence (Q12809 whole entry): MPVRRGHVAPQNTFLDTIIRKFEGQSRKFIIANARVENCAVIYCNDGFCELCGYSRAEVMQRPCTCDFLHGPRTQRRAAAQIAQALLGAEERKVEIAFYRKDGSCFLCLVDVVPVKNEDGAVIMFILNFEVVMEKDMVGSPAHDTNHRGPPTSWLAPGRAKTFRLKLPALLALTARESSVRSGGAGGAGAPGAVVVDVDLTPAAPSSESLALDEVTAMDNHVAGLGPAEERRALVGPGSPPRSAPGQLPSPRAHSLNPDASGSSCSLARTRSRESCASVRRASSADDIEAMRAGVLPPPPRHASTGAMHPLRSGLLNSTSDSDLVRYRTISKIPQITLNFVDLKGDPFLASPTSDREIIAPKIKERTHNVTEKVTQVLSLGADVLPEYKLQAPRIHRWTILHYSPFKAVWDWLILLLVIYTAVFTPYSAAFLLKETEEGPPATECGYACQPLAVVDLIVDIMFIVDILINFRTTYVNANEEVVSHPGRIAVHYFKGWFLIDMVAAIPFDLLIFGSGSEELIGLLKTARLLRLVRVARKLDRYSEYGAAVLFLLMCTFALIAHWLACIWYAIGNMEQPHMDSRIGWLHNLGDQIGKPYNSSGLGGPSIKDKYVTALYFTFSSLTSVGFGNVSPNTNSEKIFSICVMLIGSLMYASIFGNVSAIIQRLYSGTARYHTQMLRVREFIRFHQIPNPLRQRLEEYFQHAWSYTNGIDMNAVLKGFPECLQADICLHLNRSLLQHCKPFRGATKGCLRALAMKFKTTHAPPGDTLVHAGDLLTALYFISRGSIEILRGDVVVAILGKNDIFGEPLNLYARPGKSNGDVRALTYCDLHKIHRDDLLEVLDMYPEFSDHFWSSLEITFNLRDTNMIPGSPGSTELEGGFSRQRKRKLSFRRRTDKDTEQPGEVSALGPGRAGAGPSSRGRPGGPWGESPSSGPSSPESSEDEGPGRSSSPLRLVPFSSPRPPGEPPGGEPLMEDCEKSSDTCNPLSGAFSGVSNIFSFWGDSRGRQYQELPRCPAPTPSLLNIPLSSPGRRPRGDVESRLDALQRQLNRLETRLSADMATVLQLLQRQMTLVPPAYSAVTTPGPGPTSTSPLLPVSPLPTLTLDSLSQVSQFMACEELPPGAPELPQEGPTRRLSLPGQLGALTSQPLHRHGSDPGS
Data set [5] deals with h-Tel quadruplex DNA sequence 5'-d[AGGG(TTAGGG)3]-3'. The data set is described as follows: SPR binding to quadruplex DNA. More on the design: species or system human. The note with it: for Quadruplex/duplex ratio: quadruplex vs duplex affinity. On the procedure:
(§3) Oligonucleotides 5’-biotin-d [AG3 (T2AG3)3] quadruplex and 5’-biotin-CGA3T3C(CT)2GA3T3CG were purchased from Midland Certified Reagent Company (Midland, TX). Purification of DNA, preparation of solutions, collection of data, and analysis of results were conducted according to methods adopted in an earlier study.
(§4) This technique takes advantage of the refractive index change elicits by the binding of the drug with the h-Tel quadruplex DNA sequence 5’-d[AGGG(TTAGGG)3]-3’ or an alternating hairpin duplex sequence immobilized on a sensor chip surface.

For data set [6], the system named is alternating hairpin duplex sequence 5'-biotin-CGA3T3C(CT)2GA3T3CG. The data set is described as follows: SPR binding to duplex DNA. On the procedure:
as §3, §4

Data set [7] concerns human colon cancer cell line HT-29. The experiment in a line: MTT proliferation assay, HT-29. To be noted: 96 hours. The data set is classed as cell-based. On the procedure:
(§5) Normal WI-38 diploid human lung fibroblasts and the human colorectal adenocarcinoma HT29 cells were obtained from American Type Culture Collection (Manassas, VA, USA). BJ fibroblasts expressing hTERT and SV40 early region (BJ-EHLT) were obtained as previously reported. Cells were grown in Dulbecco Modified Eagle Medium (D-MEM, Invitrogen Carlsbad, CA, USA) supplemented with 10% fetal calf serum, 2 mM L-glutamin and antibiotics.
(§6) MTT (3-(4,5-Dimethylthiazol-2-yl)-2,5-diphenyltetrazolium Bromide) assay was performed in treated and untreated cells for 96 hours. Cells were incubated with MTT solution (Sigma-Aldrich), and the purple formazan crystals were dissolved in isopropanol. Optical densities (OD) at 540 nm was determined on microplate reader.
(§7) Firstly, we investigated if they were able to efficiently promote growth inhibition of tumor cells without affecting the survival of normal cells in vitro. In Table 1 we report for each compound the concentration causing 50% of growth inhibition (GI50) calculated by performing a proliferation assay in the human colon cancer cell line HT-29 or in the human ‘normal’ lung WI-38 cells. […] On the basis of results described so far, we decided to exclude from the further analysis ligand 10 for its high value of hERG inhibition (95%) (Table 1).

Data set [8] has as its system human 'normal' lung WI-38 cells. The experiment in a line: MTT proliferation assay, WI-38. Format: cell-based. To be noted: for Ratio PMX WI38/HT29: GI50 WI-38 / GI50 HT-29; for GI50: Homo sapiens, WI-38, MTT, 96 hours. On the procedure:
as §5, §6, §7

Another data set relates to BJ-EHLT fibroblasts. The data set is described as follows: γ-H2AX/TRF1 colocalization (TIFs, telomere uncapping). The data set is classed as cell-based, human. To be noted: for telomere dysfunction (TIF formation), in words: 0.1 and 0.5 μM. On the procedure: Cells were fixed in 2% formaldehyde and permeabilized in 0.25% Triton X100 in PBS for 5 min at room temperature. For immunolabeling, cells were incubated with primary antibody, then washed in PBS and incubated with the secondary antibodies. The following primary antibodies were used: pAb and mAb anti-TRF1(Abcam Ltd.; Cambridge UK); mAb (Upstate, Lake Placid, NY) and pAb anti-γH2AX (Abcam); mAb anti-PCNA (Sigma Chemicals, Milano, Italy). The following secondary antibody were used: TRITC conjugated Goat anti Rabbit, FITC conjugated Goat anti Mouse (Jackson ImmunoResearch Europe Ltd., Suffolk, UK). Fluorescence signals were recorded by using a Leica DMIRE2 microscope equipped with a Leica DFC 350FX camera and elaborated by a Leica FW4000 deconvolution software (Leica, Solms, Germany). This system permits to focus single planes inside the cell generating 3D highresolution images. For quantitative analysis of γH2AX positivity, 200 cells on triplicate slices were scored. For TIFs analysis, in each nucleus a single plane was analyzed and at least 50 nuclei per sample were scored.
Unfortunately, we were not able to test compounds 4, 5 and the 0,5 μM dose of 3 as they were fluorescent in both red and green channels. […] To ascertain whether γ-H2AX was phosphorylated in response to dysfunctional telomeres, double immunofluorescence experiments were processed by confocal microscopy. We observed that some of the γ-H2AX foci induced by G4-ligands colocalized with TRF1, a good marker for interphase telomeres, forming the so-called telomere dysfunction-induced foci (TIFs) (Figure 2B).
Figure 2 DNA damage activation at telomeres. BJ-EHLT fibroblasts were treated for 24 hrs with compound 1 and the indicated ligands at the doses 0.1 (light-grey bars) and 0.5 μM (dark-grey bars). Cells were processed for immunofluorescence (IF) using antibodies against γ-H2AX and TRF1 to mark DNA damage and telomeres respectively. Percentages of γ-H2AX- (A) and TIF-positive (B) treated and untreated cells are reported in the histograms. (C) Mean number of TIFs in the indicated samples. Cells with four or more γ-H2AX/TRF1 foci were scored as TIF positive. Error bars indicate the standard deviation. (D) Representative images of IF of untreated and 1, 3, 6 and 8-treated BJ-EHLT cells. Enlarged views of TIFs are reported on the right of the merged images. The images were acquired with a Leica Deconvolution microscope (magnification 100x). (E) Cells treated as in (A) were processed for IF of γ-H2AX and PCNA to mark replicating cells. Percentage of γ-H2AX+/PCNA- or γ-H2AX+/PCNA + nuclei in the indicated samples are reported in the histograms.

human recombinant β2 adrenergic receptor, sequence (P07550 whole entry): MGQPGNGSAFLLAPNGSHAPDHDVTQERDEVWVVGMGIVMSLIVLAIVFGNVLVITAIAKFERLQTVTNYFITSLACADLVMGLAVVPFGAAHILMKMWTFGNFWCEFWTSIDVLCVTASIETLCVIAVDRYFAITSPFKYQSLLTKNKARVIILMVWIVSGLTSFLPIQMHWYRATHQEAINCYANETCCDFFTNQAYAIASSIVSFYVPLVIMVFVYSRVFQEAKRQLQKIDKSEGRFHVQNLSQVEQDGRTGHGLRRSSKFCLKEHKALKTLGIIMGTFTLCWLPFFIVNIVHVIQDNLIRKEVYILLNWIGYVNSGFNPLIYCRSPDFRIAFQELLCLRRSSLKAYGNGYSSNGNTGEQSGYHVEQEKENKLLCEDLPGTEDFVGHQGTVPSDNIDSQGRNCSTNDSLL

As to `CN1c2ccccc2-c2c3c1cccc3c1ccc(NC(=O)CO)cc1[n+]2C` [Compound 6], the results for the K in [1] and in [2] were 1.47e+07 M⁻¹ and 700000 M⁻¹, respectively. For the same compound, the inhibition at 1 µM in data set [3] was 77%; in data set [4], 8%. Further, the inhibition at 10 µM at hERG was 35%. For the same compound, the “Quadruplex DNA affinity K” value in data set [5] was 14,7 x10^6 M^−1. Moreover, the Quadruplex/duplex ratio in data set [5] was 21. The “Duplex DNA affinity K” value in data set [6] is 0,7 x10^6 M^−1. The GI50 was 260 nM in [7] and 22300 nM in data set [8]. For the same compound, the “Ratio PMX WI38/HT29” value in data set [8] is 85,7. In addition, the “mean TIFs per nucleus” value in the data set with BJ-EHLT fibroblasts (24 hrs) is “about seven”. In addition, the “percentage of cells with more than four γ-H2AX/TRF1 colocalizations (TIF-positive)” value in the data set with BJ-EHLT fibroblasts (24 hrs, 0,5 μM) is about 40%.
`C[n+]1c2c3c(cccc3c3ccccc31)Sc1ccccc1-2` [Compound 10] came in with a K in [1] of 1e+06 M⁻¹. In data set [2], this compound yielded a K of under 100000 M⁻¹. For the same compound, the inhibition at 1 µM in [3] came out at 49%. Moreover, the inhibition at 10 µM at hERG is 95%. Further, in data set [5], the “Quadruplex DNA affinity K” value is reported as 1,0 x10^6 M^−1 and the Quadruplex/duplex ratio is over 10. Further, the “Duplex DNA affinity K” value in [6] is <0,1 x10^6 M^−1. In addition, the GI50 in data set [7] came out at 130 nM. In data set [8], the “Ratio PMX WI38/HT29” value was 47,5 and the GI50 amounted to 6170 nM.
Consider `CN1c2ccccc2-c2c3c1cccc3c1ccc(NC(=O)CC[S+](C)[O-])cc1[n+]2C` (stereo not shown) [Compound 5], for which the inhibition at 1 µM in data set [3] was 93%; in data set [4] it was 10%. Besides, the inhibition at 10 µM at hERG worked out at 16%. The “Quadruplex DNA affinity K” value in data set [5] is 2.3e+07 M⁻¹. Besides, in [5], the Quadruplex/duplex ratio is on record as over 230. For the same compound, the “Duplex DNA affinity K” value in data set [6] was <0,1 x10^6 M^−1. Moreover, the results for the GI50 in [7] and in data set [8] were 1830 nM and over 30000 nM, respectively.
`CN1c2ccccc2-c2c3c1cccc3c1ccc(CN)cc1[n+]2C` [Compound 4]: the K in data set [1] was 7.4e+06 M⁻¹; in [2], 1.1e+06 M⁻¹. Besides, the figures for the inhibition at 1 µM in data set [3] and in data set [4] were 65% and 1%, respectively. Further, the inhibition at 10 µM on hERG amounted to 15%. Moreover, in data set [5], the “Quadruplex DNA affinity K” value amounted to 7.4e+06 M⁻¹. Moreover, the Quadruplex/duplex ratio in data set [5] is 6,7. For the same compound, in data set [6], the “Duplex DNA affinity K” value is given as 1,1 x10^6 M^−1. Moreover, the values for the GI50 in data set [7] and in data set [8] were 1630 nM and 17300 nM, respectively. Besides, the “Ratio PMX WI38/HT29” value in data set [8] was 10,6.
With `C[n+]1c2c3c(cccc3c3ccccc31)Oc1ccccc1-2` [Compound 9], the K in data set [1] was 1.5e+06 M⁻¹; in [2] it was under 100000 M⁻¹. Further, the inhibition at 1 µM in data set [3] was 24%. Moreover, the inhibition at 10 µM on hERG came out at 86%. The “Quadruplex DNA affinity K” value in data set [5] is 1,5 x10^6 M^−1. Also, the Quadruplex/duplex ratio in [5] is given as over 15. Also, the “Duplex DNA affinity K” value in data set [6] was <0,1 x10^6 M^−1. For the same compound, the GI50 amounted to 210 nM in data set [7] and 5110 nM in [8]. Further, the “Ratio PMX WI38/HT29” value in data set [8] is 24,3. In the data set on BJ-EHLT fibroblasts (24 hrs), the “telomere dysfunction (TIF formation), in words” value (“telomere dysfunction” below) is “did not cause significant telomere dysfunction”.
Consider `CN(C)CC#Cc1ccc2c3cccc4c3c([n+](C)c2c1)-c1ccccc1N4C` [Compound 7], for which the K in data set [1] was found to be 2.93e+07 M⁻¹; in data set [2], 900000 M⁻¹. The inhibition at 1 µM in data set [3] came to 92%; in [4], 0%. The inhibition at 10 µM at hERG came to 37%. The “Quadruplex DNA affinity K” value in data set [5] was 29,3 x10^6 M^−1. For the same compound, the Quadruplex/duplex ratio in [5] was 32,6. Moreover, in data set [6], the “Duplex DNA affinity K” value was 0,9 x10^6 M^−1. The GI50 came to 280 nM in data set [7] and 9360 nM in [8]. For the same compound, the “Ratio PMX WI38/HT29” value in data set [8] is on record as 33,4. Besides, the “telomere dysfunction” value in the data set on BJ-EHLT fibroblasts (24 hrs) is “did not cause significant telomere dysfunction”.
Regarding `COC(=O)c1ccc2c(c1)c1cccc3c1c([n+]2C)-c1ccccc1N3C` [Compound 2], the K in data set [1] came to 4.2e+06 M⁻¹; in data set [2] it was 200000 M⁻¹. The inhibition at 1 µM in data set [3] was found to be 98%; in [4] it was 11%. Also, the inhibition at 10 µM on hERG was 41%. In data set [5], the “Quadruplex DNA affinity K” value turned out to be 4.2e+06 M⁻¹. The Quadruplex/duplex ratio in [5] is given as 21. Moreover, the “Duplex DNA affinity K” value in [6] is recorded as 0,2 x10^6 M^−1. The GI50 in data set [7] was 100 nM; in data set [8], 3110 nM. For the same compound, the “Ratio PMX WI38/HT29” value in data set [8] was 31,1. Also, the “telomere dysfunction” value in the data set on BJ-EHLT fibroblasts (24 hrs) was “did not cause significant telomere dysfunction”.
Turning to `CN1c2ccccc2-c2c3c1cccc3c1ccc(NC(=O)CCS(C)=O)cc1[n+]2C` (stereo not shown), the K in [1] is 2.3e+07 M⁻¹; in data set [2], under 100000 M⁻¹.
